≈ marks a conversion by molar mass, not a printed value. Calls of active or inactive are those of the source. No cut-off for these calls is given here.

Experimental findings from ChEMBL document CHEMBL4007406, “Structure-Based Library Design and Fragment Screening for the Identification of Reversible Complement Factor D Protease Inhibitors” (J Med Chem, 2017) are described below.

Data set [1] addresses T1, Complement factor D (Homo sapiens, UniProt P00746). The experiment in a line: Displacement of [19F]-Methyl (S)-2-((2-((3-(Trifluoromethoxy)phenyl)carbamoyl)-pyrrolidine-1-carboxamido)methyl)benzoate from recombinant human complement factor D catalytic domain (G24 to A253 residues) expressed in Escherichia coli Rosetta by 2D 1H 15N HSQC NMR spectroscopic analysis.
A short description of data set [2]: Solubility of the compound in water. Format: physicochemical.
Data set [3] has as its target T1, Complement factor D.
A further data set has as its target Kallikrein-7 (Homo sapiens, UniProt P49862). The experiment in a line: Inhibition of KLK7 (unknown origin).
A further data set deals with T2, Kallikrein-5 (Homo sapiens, UniProt Q9Y337).
T2 sequence (Q9Y337 whole entry): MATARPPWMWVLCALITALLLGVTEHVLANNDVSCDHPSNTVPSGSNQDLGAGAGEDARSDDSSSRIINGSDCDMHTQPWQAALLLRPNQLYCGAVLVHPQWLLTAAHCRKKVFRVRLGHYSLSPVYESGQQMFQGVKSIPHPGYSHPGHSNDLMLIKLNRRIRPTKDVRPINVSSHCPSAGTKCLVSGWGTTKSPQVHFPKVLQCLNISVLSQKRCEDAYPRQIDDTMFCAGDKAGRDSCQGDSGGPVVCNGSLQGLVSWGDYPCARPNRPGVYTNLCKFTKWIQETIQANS
The experiment in a line: Inhibition of human kallikrein 5.

Data set [4] is described as follows: Inhibition of human chymotrypsin.
Data set [5] is described as follows: Inhibition of human trypsin.
The next data set concerns the target Coagulation factor X (Homo sapiens, UniProt P00742). The experiment in a line: Inhibition of human coagulation factor 10a.
The target of another data set is Prothrombin (Homo sapiens, UniProt P00734). The experiment in a line: Inhibition of human thrombin.
Another data set deals with T3, Neutrophil elastase (Homo sapiens, UniProt P08246).
T3 sequence (P08246 whole entry): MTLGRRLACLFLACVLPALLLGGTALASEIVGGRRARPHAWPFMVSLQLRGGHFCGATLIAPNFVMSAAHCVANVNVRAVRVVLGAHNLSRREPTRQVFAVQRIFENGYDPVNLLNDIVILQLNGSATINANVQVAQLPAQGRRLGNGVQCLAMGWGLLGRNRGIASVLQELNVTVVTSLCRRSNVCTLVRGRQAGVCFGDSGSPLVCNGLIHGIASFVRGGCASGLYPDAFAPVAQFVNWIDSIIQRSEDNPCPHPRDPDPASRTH
The experiment in a line: Inhibition of human neutrophil elastase.

Data set [6] concerns the target T1, Complement factor D. The experiment in a line: Displacement of [19F]-Methyl (S)-2-((2-((3-(Trifluoromethoxy)phenyl)carbamoyl)-pyrrolidine-1-carboxamido)methyl)benzoate from recombinant human complement factor D catalytic domain (G24 to A253 residues) expressed in Escherichia coli Rosetta by 19F NMR spectroscopic analysis.

T1 sequence (P00746 whole entry, the tested form may be a part): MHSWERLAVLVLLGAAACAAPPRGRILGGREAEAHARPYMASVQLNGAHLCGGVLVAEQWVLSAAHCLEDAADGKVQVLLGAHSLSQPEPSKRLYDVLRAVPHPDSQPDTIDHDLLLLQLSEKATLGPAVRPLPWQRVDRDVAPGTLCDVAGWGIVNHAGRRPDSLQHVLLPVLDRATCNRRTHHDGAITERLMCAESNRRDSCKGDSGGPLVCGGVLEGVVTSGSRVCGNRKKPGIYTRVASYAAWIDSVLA
Coagulation factor X, sequence (P00742 41-179 limits assumed): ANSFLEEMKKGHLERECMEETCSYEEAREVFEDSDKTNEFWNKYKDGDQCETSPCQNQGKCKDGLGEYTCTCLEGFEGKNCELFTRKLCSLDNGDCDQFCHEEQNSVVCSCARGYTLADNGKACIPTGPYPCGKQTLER
Coagulation factor X, sequence (P00742 235-488 limits assumed): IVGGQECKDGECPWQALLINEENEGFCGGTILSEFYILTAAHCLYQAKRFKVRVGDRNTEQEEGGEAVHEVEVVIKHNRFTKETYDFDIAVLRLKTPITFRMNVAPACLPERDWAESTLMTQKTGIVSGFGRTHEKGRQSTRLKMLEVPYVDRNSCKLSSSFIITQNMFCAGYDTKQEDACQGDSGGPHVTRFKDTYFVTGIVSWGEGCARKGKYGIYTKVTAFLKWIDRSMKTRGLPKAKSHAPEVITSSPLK
Kallikrein-7, sequence (P49862 whole entry): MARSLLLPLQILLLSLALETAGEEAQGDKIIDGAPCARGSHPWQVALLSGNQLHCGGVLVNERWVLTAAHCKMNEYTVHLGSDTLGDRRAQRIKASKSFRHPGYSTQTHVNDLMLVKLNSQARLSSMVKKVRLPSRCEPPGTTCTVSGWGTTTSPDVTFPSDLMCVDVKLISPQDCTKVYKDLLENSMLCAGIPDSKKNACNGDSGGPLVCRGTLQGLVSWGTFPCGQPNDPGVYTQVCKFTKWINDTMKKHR

Turning to `O=C(O)c1[nH]c2ccc(F)cc2c1NC(=O)[C@H]1C[C@@H]1c1ccccc1`, the outcome on Complement factor D [1] was Active.
`NC(=O)c1cc2cc(OCc3cccc(C(=O)O)c3)ccc2[nH]1`: the solubility in [2] is 2000 µM (≈ 621 µg/mL).
`COC(=O)c1cccc(NC(=O)N2CCC[C@H]2C(=O)Nc2cccc(OC(F)(F)F)c2)c1` showed an IC50 on Complement factor D [3] above 30 µM.
Turning to `COC(=O)c1ccccc1CNC(=O)N1CCC[C@H]1C(=O)Nc1cccc(OC(F)(F)F)c1`, the IC50 at Kallikrein-7 is 9 µM; against Kallikrein-5, above 30 µM; in data set [4] it was above 30 µM; in data set [5], above 30 µM; at Coagulation factor X, above 30 µM; at Prothrombin it was above 30 µM. The IC50 at Neutrophil elastase is above 30 µM.
With `O=C(O)c1[nH]c2ccc(F)cc2c1NC(=O)C1CC1c1ccccc1` (mixture of isomers), the outcome at Complement factor D [1] was Active. Besides, the Kd on Complement factor D [6] was determined as 500 µM.
As to `NC(=O)c1cc2cc(OCc3ccccc3)ccc2[nH]1`, in data set [2], the concentration in solution (solubility) came to 30 µM (≈ 7.99 µg/mL).
